Data on three compounds can be found in patent US20240316012A1, “METHODS FOR TREATING LYMPHOMA” (Northwestern University, priority 2023, published 2024).

Test [1] has as its system ITK-SYK^+PD-1− lymphoma. Nature of the test: Torin-1 inhibitor treatment in vivo of lymphoma-bearing NSG mice. The arrangement: species or system mouse. The source says:
FIGS. 2A-2F PD-1 represses mTOR and HIF1α in pre-malignant cells. […] White arrows indicate spleens. Color intensity represents the calculated MBq/ml uptake of ^18F-FDG. SUV, standardized uptake value ^18F-FDG, ^18F-fluordesoxyglucose. […] SUVmax denotes the maximum signal found in a single voxel across the entire tumor lesion. P=one-way ANOVA and two-sided Student's t-test. Shown are the mean±SEM and individual data points. […] CSI, chemical shift imaging. ROI, region of interest. […] P=two-sided Student's t-test. Shown are the mean±SD and individual data points. […] Spleen-derived single-cell suspensions were generated from ITK-SYK^CD4-creERT2 mice on d5 after TAM. Before fixation, anti-PD-L1 or control antibodies were added for four hours in vitro. […] On day 0, NSG mice received 1,000 ITK-SYK-expressing eGFP+ cells from an ITK-SYK^CD4-creERT2; Pdcd1^−/− mouse, FACS-sorted on d5 after TAM. Mice received 6 mg/kg Torin-1 or vehicle daily via intraperitoneal injection (n=6 mice per group) from day 3 p.i. on. P=two-sided log-rank test. FIG. 2A, Representative mice from two independent experiments. FIG. 2B, Pooled data from two independent experiments. FIG. 2C, Representative amplitudes from one experiment. FIG. 2D, Pooled data from two independent experiments. FIG. 2E, Representative data from two independent experiments with two biological replicates per group. […]

Test [2] has as its system H3K27 acetylation. Nature of the test: Flow cytometry for H3K27ac after in vitro culture with inhibitors. It is filed as cell-based, mouse. The note with it: exogenous acetate 100 μM; FIG. 11E. The source says: Data are normalized to viable cell number and z-scores per metabolite. […] P=two-sided Student's t-test. The data are presented as the mean±SEM and individual data points for each animal. Cross indicates death of the animal. […] P=two-sided Student's t-test. Shown are the mean±SD and individual data points. […] Data are presented as mean±SD and individual data points. […] P=paired two-sided Student's t-test. Data are presented as the mean±SD. […] Data was normalized as in (a). P=two-sided Student's t-test. The data are presented as the mean±SEM. […] Experiment as in (h) (n=3 mice genotype). Data was normalized as in (a). P=two-sided Student's t-test. Data are presented as the mean±SD. FIGS. 3-D, Representative data from two independent experiments with n=3 biological replicates per group. FIG. 3E, Representative data from two independent experiments with two biological replicates per group. FIG. 3F, Representative data from two independent experiments. FIG. 3G, Representative data from two independent experiments with three biological replicates per group. FIG. 3H, Representative data from one experiment with four biological replicates per group. FIG. 3I, Representative data from one experiment with three biological replicates per group FIGS. 4A-4H show ACLY is a critical effector molecule downstream of PD-1. […] ITK-SYK^+ cells were FACS-sorted from ITK-[…]2 mice on d5 after TAM and 12 h anti-PD-L1 or isotype control antibody treatment (i.p., 200 μg). P=paired two-sided Student's t-test. Data are presented as the mean±SD. […] Spleen-derived single-cell suspensions were FACS-sorted from ITK-[…]2 mice on d5 after TAM and cultured in vitro overnight with anti-PD-L1 or isotype control antibodies and the PI3K inhibitors (“iPI3K”) Wortmannin (20 nM), LY294002 (20 μM), or DMSO. […] Spleen-derived lymphocytes, FACS-sorted from ITK-[…]2 and ITK-[…]2; Pdcd1^-/- mice on d5 after TAM were incubated for three days in vitro. P=two-sided Student's t-test. Data are presented as the mean±SD. […] Protein lysates were generated after 48 h in vitro culture. RNP, ribonucleoprotein. […] P=two-sided Logrank-test. […] ITK-SYK^+ cells were FACS-sorted from ITK-[…]2 (“Pdcd1^+/+”) and ITK-[…]2; Pdcd1^-/- (“Pdcd1^-/-”) mice on d5 after TAM, fixed, and processed for anti-H3K27ac ChIP-seq analysis. ChIP-seq, chromatin immunoprecipitation sequencing; TSS, transcription start site. FIG. 4B, Representative data from three independent experiments with three biological replicates per group. FIG. 4C, Representative data from two independent experiments with two biological replicates. FIGS. 4D and 4E, Representative data from 3 independent experiments. FIGS. 4F and 4G, Data from one experiment with n=5 mice per group. […] (8752, CST), and assessed by flow cytometry. […]
Background: Flow cytometry measures light scatter and fluorescence of single cells or particles in a stream.

Test [3] concerns PDCD1-mutant lymphoma cells (primary CTCL). The experiment in a line: Inhibitor treatment of human cells in vitro, division index, PDCD1-mutant CTCL cells. The test is classed as cell-based. Particulars: 2-DG 1 mM, everolimus 0.1 μM, BMS-303141 10 μM; anti-CD3/anti-CD28 beads, 6 days; FIG. 7E. As for the experimental part: (§1) FIGS. 7A-7H show ACLY dependency and AP-1 activation in human PDCD1 defective T-NHL. […] CNA, copy number aberrations. FIG. 7B GSEA for the indicated gene sets based on RNA-seq data from the 21 CTCL patients shown in (a). NES, normalized enrichment score; FDR, false discovery rate. […] P=one-way ANOVA and two-sided Student's t-test. Shown are the mean±SD and individual data points. […] FACS-sorted malignant cells were stimulated with anti-CD3/anti-CD28 beads, and 2-NBDG uptake was determined at the indicated time points. P=two-sided Student's t-test. Shown are the mean±SEM and individual data points. […] CFSE, carboxyfluorescein succinimidyl ester. P=two-sided Student's t-test. The data are presented as the mean±SEM and individual data points. […] Legend as in (5a). […] FIG. 7H GSEA for the indicated gene sets with RNA-seq data from 21 CTCL PDCD1mut” or “PDCD1 wt, and three patients with hyperprogression. NES, normalized enrichment score; FDR, false discovery rate. FIGS. 7A and 7B, Data from a single experiment with 21 patients. FIGS. 7C and 7D, Data from one experiment with three patients per group and three healthy donors. FIG. 7E, Data from one experiment with three patients and three healthy donors. FIGS. 7F and 7G, Data from one experiment with three patients per group. FIG. 7H, Data from a single experiment.
(§2) Isolation of primary human CTCL cells. This study was approved by the Northwestern University Institutional Review Board. Patients provided informed consent for inclusion in the study. […] The tumor burden for each patient was determined using well-validated clinical markers, taking whichever value was higher between Sezary cell counts or the CD26 negative cell number by clinical flow cytometry. These were analyzed in conjunction with white blood cell and absolute lymphocyte counts.
(§3) Inhibitor treatment of human cells in vitro Malignant CTCL cells and CD4^+ T cells from healthy donors were isolated as previously described. […] After 6 days, the cells were analyzed by flow cytometry, and the division index was determined using the FlowJo proliferation tool (v10.6, FlowJo LLC).

The test system of test [4] is PD-1 wild-type tumors (primary CTCL). Nature of the test: Inhibitor treatment of human cells in vitro, division index, PD-1 wild-type CTCL cells. The test is classed as cell-based. Particulars: 2-DG 1 mM, everolimus 0.1 μM, BMS-303141 10 μM; 6 days; FIG. 7E. As for the experimental part: as §1, §2, §3

Each structure is given as a SMILES string.

For the compound `CCC(=O)N1CCN(c2ccc(-n3c(=O)ccc4cnc5ccc(-c6cnc7ccccc7c6)cc5c43)cc2C(F)(F)F)CC1` [Torin-1], in test [1] (NSG mice, Torin-1 intraperitoneal from day 3, 6 mg/kg daily or 10 mg per kg per day 5 days a week, vs vehicle, p=0.0057), the “survival of ITK-SYK+PD-1− lymphoma-bearing mice” value was “significantly prolonged survival”. Also, the “mTOR activity within the tumor cells in vivo” value in test [1] (lymphoma-bearing mice, FIG. 10G) is given as “blocks mTOR activity”.

With `CC(=O)O` [acetate], in test [2], the “restoration of decreased H3K27ac signals in ACLY inhibitor-treated lymphoma cells” value was “not able to restore”.

In the case of `CO[C@H]1C[C@@H]2CC[C@@H](C)[C@@](O)(O2)C(=O)C(=O)N2CCCC[C@H]2C(=O)O[C@H]([C@H](C)C[C@@H]2CC[C@@H](OCCO)[C@H](OC)C2)CC(=O)[C@H](C)/C=C(\C)[C@@H](O)[C@@H](OC)C(=O)[C@H](C)C[C@H](C)/C=C/C=C/C=C/1C` [everolimus], in test [3], the “viability, division and proliferation of PDCD1-mutant cancer cells (relative division index)” value is “reduced the viability and division”. In addition, the “response of stage-matched PD-1 wild-type tumors (relative division index)” value in test [4] is reported as “resistant”.
